Assay results from article PMC7956476, “Quinoline Functionalized Schiff Base Silver (I) Complexes: Interactions with Biomolecules and In Vitro Cytotoxicity, Antioxidant and Antimicrobial Activities” (Molecules, 2021).

Key:
calf thymus DNA (CT-DNA) = assay: CT-DNA electronic absorption titration (Wolfe–Shimer); assay type: binding
Experimental: The interaction of the L1–L5 and complexes Q1–Q15 with calf thymus-DNA was carried out in a Phosphate buffer saline solution pH 7.2 stored at 4 °C. The DNA stock solution was prepared by dissolving CT-DNA sodium salt in Phosphate buffer saline solution with continuous stirring overnight. It was filtered and stored at 4 °C and used within four days. […] A fixed amount of the L1–L5 and complexes Q1–Q15 (50 µM) were prepared by dissolving an appropriate amount in DMSO. […] Therefore, in all the experimental of the interaction of L1–L5 and complexes Q1–Q15 with biomolecules, the final concentration of DMSO in the incubation mixture was ~2% (v/v).
The binding modes of L1–L5 and complexes Q1–Q15 to CT-DNA were characterized through electronic absorption titration by varying concentrations of CT-DNA (0–30 µM) in phosphate buffer saline solution against fixed concentrations (20 µM) of L1–L5 and complexes Q1–Q15. […] The absorbance of CT-DNA is cancelled by adding equivalent amounts of CT-DNA to both the tested compounds and the reference solutions.

[1] = test system: Escherichia coli ATCC 25922; assay: Minimum inhibitory concentration (MIC), spotting on Müeller–Hinton agar; assay type: cell-based; details: Gram − Ve, E. coli, 37 °C, 18 h
Experimental: (§1) Sterilized Nutrient agar medium was first prepared by dissolving 38 g of Müeller–Hinton agar (MHA) (Biolab, Midrand, Africa) in distilled water (1 L). […] The cooled Agar medium was poured in Petri dishes while ensuring a uniform 4 mm depth of the medium and cooling further to ambient temperature.
(§2) These bacteria were inoculated in a sterilized Nutrient Broth (NB) (Biolab, Midrand, Africa) through streak plate technique and incubated at 37 °C for 18 h. The nutrient broth was sterilized by dissolving 1.3 g in distilled water (100 mL). Ca. 10 mL of the nutrient broth was transferred into a cotton wool-plugged test tubes and wrapped with an aluminium foil. […] Following this was the isolation of a single colony of the bacteria and inoculated into a 10 mL sterile NB which was then incubated in a shaking incubator at 37 °C for 18 h. Each of the bacteria strain concentrations was adjusted with sterile distilled water to get a final concentration of 1.5 × 10^8 cfu/mL, i.e., 0.5 Mc Farland’s Standard using a densitometer (Mc Farland Latvia). The bacteria were lawn inoculated on the set MHA Petri dishes using a sterile cotton swab. Screening of L1–L5 and Q1–Q15 for antibacterial activity was first carried out by spotting 5 µL of their solution (prepared from the dissolution of 1000 µg of the L1–L5 and Q1–Q15 in 1 mL dimethyl sulfoxide (DMSO)) on an MHA petri dish and incubated at 37 °C for 18 h. The antibacterial activity was determined by looking out for a clear zone at the spotting point.

[2] = test system: Staphylococcus aureus ATCC 25923; assay: as above; assay type: cell-based; details: Gram + Ve, S. aureus, 37 °C, 18 h
Experimental: as §1, §2

[3] = test system: Staphylococcus aureus ATCC 700699 (methicillin-resistant); assay: as above; assay type: cell-based; details: Gram + Ve; methicillin-resistant S. aureus; 37 °C, 18 h
Experimental: as §1, §2

[4] = test system: Salmonella typhimurium ATCC 14026; assay: as above; assay type: cell-based; details: Gram − Ve; S. typhi; 37 °C, 18 h
Experimental: as §1, §2

[5] = test system: Pseudomonas aeruginosa ATCC 27853; assay: as above; assay type: cell-based; details: Gram − Ve; P. aeruginosa; 37 °C, 18 h
Experimental: as §1, §2

CT-DNA-EB adduct = assay: Fluorescence competitive displacement of ethidium bromide from CT-DNA; assay type: binding, calf; details: for CT-DNA-EB-Complex Ksv (M^−1) × 10^4: Stern–Volmer quenching constant, 25 °C; for CT-DNA-EB-Complex Kq (M^−1S^−1) × 10^12: bimolecular quenching constant, Ksv = Kqτo, τo 10^−8 s; for CT-DNA-EB-Complex Kbin (M^−1) × 10^5: binding constant from double-logarithmic plot
Description: The Stern–Volmer plot approach was used based on the fact that the Stern–Volmer plots for Q1–Q15 (Figure 5c), were linear an indication of only one mechanism for the quenching fluorescence, i.e., either dynamic or static. […] (1) Ksv=Kqτo where Ksv, Kq, and τo represent Stern–Volmer quenching constant, bimolecular quenching constant, and an average lifetime of the fluorophore in the absence of the quencher, respectively. τₒ normally takes about 10^−8 s in biomacromolecules.
The double-logarithmic Equation (2) was used in determining the binding constant of complexes Q1–Q15 and CT-DNA. (2) logFo−F/F=logKb+n logQ
A competitive displacement study was carried out using fluorescence spectroscopy between CT-DNA pre-treated with ethidium bromide (EB) and complexes Q1–Q15 to establish the complexes′ actual mode of binding to CT-DNA. […] The competitive luminescence displacement assay was done using a modified method. Pre-treated 15 µM solution of EB with 15 µM of CT-DNA was prepared in a phosphate buffer of pH 7.2 and left to equilibrate for 30 min. Keeping CT-DNA-EB concentrations constant, different concentrations (0–20 µM) of the complexes were added at 8 min incubation interval at room temperature. The fluorescence quenching ability of CT-DNA bound EB by the complexes were recorded in the wavelength range of 530–700 nm with an excitation wavelength at 525 nm at 25 °C. (6) Fo/F=1+KSVQ=1+KqτoQ
A Stern–Volmer (Equation (6)) was used to evaluate the CT-DNA-EB fluorescence quenching of the complexes. Where Fo and F denote the relative fluorescence intensities of CT-DNA in the absence and presence of the quencher, Ksv, Stern–Volmer quenching constant, [Q], quencher concentration, Kq, bimolecular quenching constant and τo, average lifetime of the fluorophore in the absence of the quencher which is typically equal to 10^−8 s in biomacromolecules.

[6] = molecular target: bovine serum albumin (BSA) (Bos taurus, UniProt P02769); assay: Albumin binding by absorption spectroscopy titration
Description: Bovine serum albumin (BSA) was used as the protein standard in this study because of its close resemblance to human serum albumin (HSA), its stability, high solubility, neutrality in many biochemical reactions and low cost. In protein binding study, absorption spectroscopy titration is a known method used in studying the conformational changes in proteins, and this protein is characterized by an intense absorbance peak at 280 nm depicting the microenvironment around tyrosine and tryptophan residue polarity.
The absorbance assay of albumin binding is a very simple method used in identifying the conformational changes in protein. […] A stock solution of bovine serum albumin (BSA) was prepared by dissolving an appropriate amount of BSA in phosphate buffer saline solution (pH 7.2) under constant stirring for 1 h at 25 °C. It was kept at 4 °C and used within four days. […] The stock solution of the complex was prepared by dissolving 1 mmol of the complexes in DMSO. The absorption titration assay was done by adding different concentrations (0–10 µM) of the complexes to a constant BSA concentration (6 µM). The sample solution was incubated after each addition of the concentrations for 10 min at 25 °C before recording the absorbance at λmax 280 nm.

[7] = Ferric reducing antioxidant power (FRAP) assay; assay type: biochemical; details: done in triplicate
Description: Antioxidants are important in protecting the human body against damage by reactive oxygen species (ROS). Accumulation of ROS in the cells may lead to damage of the DNA, RNA, and proteins which subsequently leads to several physiological disorders such as cardiovascular disease, diabetes, rheumatism, atherosclerosis, cancer, aging and cell death. […] The free radical scavenging ability of all ligands and complexes in this study were investigated using ferric reducing antioxidant power (FRAP). In antioxidant studies, FRAP assay is often preferred because it is simple, fast, economical, and direct in antioxidant measurement. FRAP assay is based on the electron-donating ability of an antioxidant compound. This involves the reduction of a colorless Fe^3+ tripyridyltriazine complex (Fe^3+ (TPTZ)) to an intense blue-colored Fe^2+ tripyridyltriazine complex (Fe^2+ (TPTZ)) by the electron-donating antioxidants at low pH [69]. The reducing power is to determine the reductive ability of the test compounds.
Antioxidant activity studies of L1–L5 and Q1–Q15 were done using ferric reducing antioxidant power (FRAP) assay. The ferric reducing antioxidant power assay is often used to evaluate the ability of an antioxidant to donate an electron. […] The resulting mixture was incubated at 50 °C for 20 min, and 2.5 mL of 10% trichloroacetic acid was added to acidify the mixture. After that, 1 mL of the acidified mixture was added to 1 mL of distilled water and 0.5 mL of 0.1% FeCl3. The absorbance of the resulting solution was then measured at 700 nm. The antioxidant power of the compounds was expressed as a percentage of ferric reducing antioxidant power Ascorbic acid equivalent, as shown in Equation (4). (4) % FRAP =Absorbance of Absorbance of Sample/Absorbance of Ascorbic Acid ×100

[8] = intrinsic binding constant, absorption titration, PBS pH 7.2

bovine serum albumin (BSA), sequence (P02769 25-607): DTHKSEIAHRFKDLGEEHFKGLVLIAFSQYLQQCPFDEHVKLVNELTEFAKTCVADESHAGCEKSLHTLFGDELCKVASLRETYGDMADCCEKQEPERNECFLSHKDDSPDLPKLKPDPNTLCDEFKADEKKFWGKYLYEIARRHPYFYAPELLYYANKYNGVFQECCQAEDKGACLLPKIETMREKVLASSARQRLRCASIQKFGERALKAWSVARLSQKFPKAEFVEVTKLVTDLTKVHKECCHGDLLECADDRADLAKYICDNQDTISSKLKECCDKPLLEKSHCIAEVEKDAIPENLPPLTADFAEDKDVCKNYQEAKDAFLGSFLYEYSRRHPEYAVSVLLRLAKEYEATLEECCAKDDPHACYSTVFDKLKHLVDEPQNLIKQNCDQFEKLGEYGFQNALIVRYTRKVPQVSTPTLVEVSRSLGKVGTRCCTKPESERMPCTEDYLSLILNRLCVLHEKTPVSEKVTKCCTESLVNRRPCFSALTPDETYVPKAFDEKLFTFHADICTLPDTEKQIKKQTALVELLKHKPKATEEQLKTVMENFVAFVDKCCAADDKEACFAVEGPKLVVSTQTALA

SMILES	CT-DNA-Cmp. Kb (M^−1) × 10^5 (calf thymus DNA (CT-DNA); pH 7.2)	Minimum inhibitory concentration, EC [1] [mg/L]	Minimum inhibitory concentration, SA [2] [mg/L]	Minimum inhibitory concentration, MRSA [3] [mg/L]	Minimum inhibitory concentration, ST [4] [mg/L]	Minimum inhibitory concentration, PA [5] [mg/L]	CT-DNA-EB-Complex Ksv (M^−1) × 10^4 (CT-DNA-EB adduct; EB displacement)	CT-DNA-EB-Complex Kq (M^−1S^−1) × 10^12 (CT-DNA-EB adduct)	CT-DNA-EB-Complex Kbin (M^−1) × 10^5 (CT-DNA-EB adduct)	Protein-Complex Kb (M^−1) × 10^4 [6]	Antioxidant (IC50 mg/mL) FRAP [7] [mg/mL]	CT-DNA-Cmp. Kb (M^−1) × 10^5 (calf thymus DNA (CT-DNA); [8])	MIC ([1]; Escherichia coli, ATCC25922, read-out: Minimum inhibitory concentration, EC) [mg/L]	MIC ([2]; Staphylococcus aureus, ATCC25923, read-out: Minimum inhibitory concentration, SA) [mg/L]	binding constant (Kbin) to CT-DNA (CT-DNA-EB adduct; as given in the text, EB displacement, double-logarithmic plot) [M⁻¹]
O=[N+]([O-])[O-].[Ag+] [AgNO3, silver nitrate, reference compound]	3.00 (M^−1) × 10^5	0.8	3.125	0.2	1000	12.5	3.12 (M^−1) × 10^4	3.12 (M^−1S^−1) × 10^12	4.50 (M^−1) × 10^5	4.49 (M^−1) × 10^4	1.43 ± 0.03				
Cc1ccc(N=Cc2ccc3ccccc3n2)cc1.Cc1ccc(N=Cc2ccc3ccccc3n2)cc1.O=S(=O)([O-])C(F)(F)F.[Ag+] [Complex Q14, [Ag(L4)2]CF3SO3]		25	50	1000	50	~0.8	2.98 (M^−1) × 10^4	2.98 (M^−1S^−1) × 10^12	5.31 (M^−1) × 10^5	7.50 (M^−1) × 10^4	3.55 ± 0.022	3.33 (M^−1) × 10^5			
Fc1ccccc1/N=C/c1ccc2ccccc2n1 [Complex L1, (E)-N-(2-fluorophenyl)-1-(quinolin-2-yl)methanimine]											22.42 ± 0.0048	1.38 (M^−1) × 10^5	1000	100	
Clc1ccc(N=Cc2ccc3ccccc3n2)cc1.Clc1ccc(N=Cc2ccc3ccccc3n2)cc1.O=[N+]([O-])[O-].[Ag+] [Complex Q3, [Ag(L3)2]NO3]		25	50	50	50	12.5	3.93 (M^−1) × 10^4	3.93 (M^−1S^−1) × 10^12	9.17 (M^−1) × 10^5	5.11 (M^−1) × 10^4	4.75 ± 0.0042	15.7 (M^−1) × 10^5			
O=[N+]([O-])[O-].[Ag+].c1ccc2nc(-c3nc4ccccc4s3)ccc2c1.c1ccc2nc(-c3nc4ccccc4s3)ccc2c1 [Complex Q2, [Ag(L2)2]NO3]		25	25	50	50	12.5	2.68 (M^−1) × 10^4	2.68 (M^−1S^−1) × 10^12	5.03 (M^−1) × 10^5	7.97 (M^−1) × 10^4	1.10 ± 0.0044	3.00 (M^−1) × 10^5			
C(=NCc1cccs1)c1ccc2ccccc2n1.C(=NCc1cccs1)c1ccc2ccccc2n1.[Ag+].[O-][Cl+3]([O-])([O-])[O-] [Complex Q10, [Ag(L5)2]ClO4]		6.25	25	1000	100	1.6	2.98 (M^−1) × 10^4	2.98 (M^−1S^−1) × 10^12	9.61 (M^−1) × 10^5	8.01 (M^−1) × 10^4	0.98 ± 0.055	5.00 (M^−1) × 10^5			961000
